Source: patent publication US12622962B2 (priority 2019, dated 2026)

How the values were obtained:
[1] = test system: HBsAg antigen-specific IFN-γ; design: species or system C57BL/6(N) mice; details: mouse, in vivo
[2] = test system: HBcAg antigen-specific IFN-γ; design: species or system C57BL/6(N) mice; details: mouse, in vivo

QS-21 [QS21]
induced production level of HBsAg-specific IFN-γ, CpG T1 with different saponins [1]: best effect | induced production level of HBcAg-specific IFN-γ, CpG T1 with different saponins [2]: best effect
